Tests used:
SPCs [1] = test: In situ perfusion of mouse hind limb, CFU-SPC in perfusate; format: in vivo, mice; conditions: for SPC mobilization from the bone marrow: FIG. 21d
Experimental: a, overview of procedures set up for identifying the direct mobilization of progenitor cells from the femoral bone marrow. […] 24 hours after the last injection, mice underwent perfusion of the right hind limb. CXCR4 antagonist (AMD3100 0.1 mM, closed bars) or vehicle (PBS, open bars) were then infused directly into the femoral artery for 10 minutes. The hind limb was then perfused for a further 50 minutes to allow collection of b, CFU-HPC; c, CFU-EPC; or d, CFU-SPC; via the femoral vein. CFU-HPC, CFU-EPC, and CFU-SPC are shown as total number of colonies collected in the perfusate. n=5-8 mice per group. Data: means±s.e.m. *: P<0.05, **: P<0.01, ***: P<0.001 between selected groups.
24 hours after the last injection, mice were administered a CXCR4 antagonist (AMD3100, 5 mg/kg i.p), KC (30 μg/kg i.v.) or vehicle and blood was collected via cardiac puncture 60 minutes later for enumeration of circulating leukocyte, HPC, EPC, and stromal progenitor cell levels.
On day 5 following pre-treatment of growth factors, mice were anaesthetized and the femoral artery and vein exposed. The hind limb was isolated by occlusion of the external iliac artery, superficial epigastric and muscular branch. Polyethylene cannulae (Portex, London, UK) were immediately inserted into the femoral artery and vein as previously described (Martin et al., 2003; 2006; Wengner et al., 2008). Perfusion buffer was infused via the arterial cannula and removed from the venous cannula using a Minipuls peristaltic pump (Anachem, Luton, UK). The hind limb was perfused for an initial 2 minutes to remove remaining blood from the vasculature and then perfused for a further 60 min with vehicle alone or the CXCR4 antagonist (AMD3100, 0.1 mM), infused over the first 10 minutes using an infusion/withdrawal pump (Harvard Instruments, U.K.).
(§1) The perfusate was centrifuged and re-suspended in DMEM+20% FBS. In some experiments citrated blood was obtained via cardiac bleed and lysed for red blood cells. Bone marrow and perfusate cytospins, and blood smears were stained using DiffQuik for the enumeration of mononuclear cells, eosinophils, and neutrophils. Bone marrow, perfusate and lysed blood were then used for assays outlined below to enumerate HPCs (CFU-HPC), EPCs (CFU-EPC), SPCs (CFU-F).
(§2) 5×10^5 cells were added to Mesencult media including supplements (Stemcell Technologies). Dishes were incubated for 7 days before media was changed, and then incubated for a further 14 days before the enumeration of SPC colonies (CFU-F).
The total number of colony forming units mobilized was calculated according to the number of colonies per plate×by the total number of leukocytes mobilized/number of cells seeded.

neutrophils [2] = test: Neutrophil mobilization, in situ perfusion of hind limb; conditions: VEGF (50 nM) infused acutely with CXCR4 antagonist, FIG. 24b
Experimental: 24 hours later these mice underwent perfusion of the right hind limb. CXCR4 antagonist (AMD3100 0.1 mM, closed bars) or vehicle (PBS, open bars) were then infused directly into the femoral artery for 10 minutes. The hind limb was then perfused for a further 50 minutes to allow collection of a, neutrophils via the femoral vein. […] The hind limb was again perfused for a further 50 minutes to allow b, collection of neutrophils. […] Data: mean±s.e.m. *: P<0.05, ***: P<0.001 between selected groups.
On day 5 following pre-treatment of growth factors, mice were anaesthetized and the femoral artery and vein exposed. The hind limb was isolated by occlusion of the external iliac artery, superficial epigastric and muscular branch. […] Perfusion buffer was infused via the arterial cannula and removed from the venous cannula using a Minipuls peristaltic pump (Anachem, Luton, UK). The hind limb was perfused for an initial 2 minutes to remove remaining blood from the vasculature and then perfused for a further 60 min with vehicle alone or the CXCR4 antagonist (AMD3100, 0.1 mM), infused over the first 10 minutes using an infusion/withdrawal pump (Harvard Instruments, U.K.).
The perfusate was centrifuged and re-suspended in DMEM+20% FBS.

EPCs = test: In situ perfusion of mouse hind limb, CFU-EPC in perfusate; format: in vivo, mice; conditions: for EPC mobilization from the bone marrow: FIG. 21c
neutrophils [3] = conditions: VEGF-treated mice, KC 30 nM, FIG. 24e
Experimental: Bone marrow-derived neutrophils were tested for migration towards KC (30 nM) using 3 μm pore sized transwell chemotaxis plates as previously described (Wengner et al., 2008). To measure HPC and EPC migration towards SDF-1α, murine bone marrow cells (2×10^6 cells) were placed in the upper chamber of transwell inserts (5 μm pore size Corning). These in turn were placed in individual wells of a 24 well cell culture plate with 30 nM SDF-1α added. Chambers were incubated for 4 hours at 37° C. and migrated cells were then placed in methocult or EPC colony media as described above for the enumeration of CFU-HPC and CFU-EPC respectively.

SPCs [4] = test: CFU-SPC bone marrow frequency; format: in vivo, mice; conditions: treated over 4 days, compared to controls, FIG. 22c
Experimental: 24 hours after the last injection, bone marrow was aspirated for the enumeration of a, CFU-HPC bone marrow frequency; b, CFU-EPC bone marrow frequency; and c, CFU-SPC bone marrow frequency.
Female BALB/c mice were purchased from Harlan (Oxford, United Kingdom). […] 24 hours after the last injection, mice were administered a CXCR4 antagonist (AMD3100, 5 mg/kg i.p), KC (30 μg/kg i.v.) or vehicle and blood was collected via cardiac puncture 60 minutes later for enumeration of circulating leukocyte, HPC, EPC, and stromal progenitor cell levels.
as §1, §2

HPC colonies = conditions: colonies grown from bone marrow of treated mice, FIGS. 25a, 25b
Experimental: a, number of cells per colony; and b, mean colony area; of CFU-HPC grown for […] in methocult.
Mobilized cells were incubated for 11 days before quantification.

[5] = agent alone (CXCR4 antagonist 0.1 mM infused 10 min; G-CSF or VEGF pre-treatment 4 days)
[6] = growth factor pre-treatment 4 days, then CXCR4 antagonist infused

With VEGF the “SPC mobilization from the bone marrow” value (SPCs [1]; [5]) was “HPCs and SPCs were not mobilized”, the “SPC mobilization, acute administration” value (SPCs [1]; growth factor (50 nM) infused acutely, alone or in combination with CXCR4 antagonist, FIG. 31c) was “neither growth factor, when administered acutely or in combination with the CXCR4 antagonist led to mobilization of SPCs” and the “SPC mobilization from the bone marrow” value (SPCs [1]; [6]) was “SPCs were mobilized”. For the same substance, the “suppression of neutrophil mobilization in response to the CXCR4 antagonist, acute administration” value (neutrophils [2]) was “effect was not seen”, the “EPC mobilization from the bone marrow” value (EPCs; [5]) was “significant EPC mobilization” and the “EPC mobilization, acute administration” value (EPCs; growth factor (50 nM) infused into femoral artery for 10 minutes, alone, FIG. 31b) was “mobilized both HPCs and EPCs”. For the same substance, the “EPC mobilization from the bone marrow” value (EPCs; [6]) was “an additive effect was observed for EPC mobilization”, the “ability of bone marrow neutrophils to migrate towards KC in vitro” value (neutrophils [3]) was “did not affect” and the “frequency/number of SPCs in the bone marrow” value (SPCs [4]) was “no difference was observed”. The “cellular content and size of HPC colonies” value (HPC colonies) was “significant increase in both their cellular content and size”.

From patent US8440199B2, “Methods for mobilizing mesenchymal stem cells in a patient” (Imperial Innovations Limited, priority 2007, dated 2013)
